Data taken from US11679108B2, “Aromatic heterocyclic compound, and pharmaceutical composition and use thereof” (GUANGZHOU HENOVCOM BIOSCIENCE CO., LTD., priority 2018, dated 2023).
pIC50: −log10 of the molar value.

How the values were obtained:
ATX in human plasma = biological target: T1, ATX in human plasma (Homo sapiens, UniProt Q13822); experiment: Analysis in vitro: detection of LPA in human plasma for screening activity (LPA 18:2 by LC/MS/MS); format: biochemical; conditions: incubated 2 hours at 37° C., LPA 18:2 detected by LC/MS/MS
T1 construct: blank plasma was derived from at least 6 individual people; from tissue; host or cells: human plasma (pooled from at least 6 individuals)
Text: Analysis In Vitro: Detection of LPA in Human Plasma for Screening Activity
Principle: LPC in plasma being used as a substrate, the produced LPA 18:2 (LPA 17:0 as an internal standard) is detected by LC/MS/MS quantitative analysis. At different concentrations of the compounds to be tested, the percentage of residual activity is obtained by the ratio of the production of LPA18:2 to that in the absence of the compounds to be tested, thereby calculating IC50 values.
Experiment procedures: blank plasma was derived from at least 6 individual people. The compounds to be tested were diluted from stock solution in 3-fold dilution gradient, to produce 8 concentrations of working solution (with zero) in series. 10 μL of the melting blank plasma samples were taken and iced methanol solution containing internal standard (LPA 17:0) was added to it, so that the mixture directedly performed protein precipitation, which served as a system control sample. 2 μL of the working solution in different concentration was taken and 198 μL of blank human plasma was added, which was incubated with a concentration of 0 to 10 μM. The samples were placed at an incubater containing 5% CO2 at 37° C., and incubated for 2 hours. When the incubation was completed, 10 μL of plasma sample was taken and appropriate volume of iced methanol solution containing internal standard (LPA 17:0) was added into it, so that the mixture directedly performed protein precipitation. The precipitation was centrifuged to take supernatant. LPA 18:2 was detected by LC/MS/MS and IC50 values were analyzed and calculated by software, seeing Table 2.

ATX = ATX (Homo sapiens, UniProt Q13822); experiment: Analysis in vitro: LPC was used as substrate for screening enzyme activity (Amplex Red fluorescence); format: biochemical; conditions: inhibitory activity against ATX, with LPC as substrate
Text: Analysis In Vitro: LPC was Used as Substrate for Screening Enzyme Activity
Principle: Lysophosphatidylcholine (LPC) as substrate is hydrolyzed by using the activity of lysoPLD enzyme, to produce lysophosphatidic acid (LPA) and choline, which is oxidized to produce H2O2 under the action of choline oxidase. In presence of horse radish peroxidase (HPR), Amplex Red reagent is reacted with H2O2 in a quantitative chemistry ratio of 1 to 1, to produce strong fluorescence products, which are detected by a fluorescent quantitative test.
Experimental procedures: the compounds to be tested were dissolved in DMSO, to prepare 10 mM of stock solution, which was diluted in a gradient concentration of 3 times with DMSO from 10 mM, to generate 10 concentration gradients. The reaction buffer solution was used for preparing a mixed solution 1 of 2 ng/μl ATX, 2 U/ml HRP and 0.2 U/ml choline oxidase in a final concentration. 20 μl of the above mixed solution 1 was added to each hole of an experiment board, […]. The compounds diluted with DMSO were transferred into an experiment board with Echo550. The reaction buffer solution was used for preparing a mixed solution 2 of […] LPC and 400 μM Amplex Red in a final concentration. 20 μl of the above mixed solution 2 was added to each hole of the experiment board. After addition, the experiment board was shook for 30 seconds on a shaker, and incubated for 30 minutes. Envision was used to read the fluorescence signals with an exciting light at 530 nm and emitted light at 590 nm. Inhibition ratio of the compounds to enzyme reaction was calculated according to the ratio of fluorescence, and IC50 of the compounds was analyzed and calculated by software, seeing Table 1.

pIC50 (ATX in human plasma) | pIC50 (ATX) | Structure (SMILES)
7.00 to 11.00 | 7.00 to 11.00 | CCc1nc2sc(N3CCC[C@H](N(C)CC(=O)N4CC(O)C4)C3)nn2c1N(C)c1nc(-c2ccc(F)cc2)c(C#N)s1 [Example 24, (S)-2-{[6-ethyl-2-(3-((2-(3-hydroxyazetidin-1-yl)-2-oxoethyl)(methyl)amino)piperidin-1-yl)imidazo[2,1-b][1,3,4]thiadiazol-5-yl](methyl)amino}-4-(4-fluorophenyl)thiazole-5-carbonitrile]
6.30 to 7.00 | 6.30 to 7.00 | CCc1nc2sc(N3CCN(CC(=O)N4CC(O)C4)CC3)nn2c1N(C)c1nc(-c2ccc(F)cc2)c(C#N)s1 [Example 2, 2-{[6-ethyl-2-(4-(2-(3-hydroxyazetidin-1-yl)-2-oxoethyl)piperazin-1-yl)imidazo[2,1-b][1,3,4]thiadiazol-5-yl](methyl)amino}-4-(4-fluorophenyl)thiazole-5-carbonitrile]
7.00 to 11.00 | 7.00 to 11.00 | CCc1nc2sc(N3CC[C@@H](N(C)CC(=O)N4CC(O)C4)C3)nn2c1N(C)c1nc(-c2ccc(F)cc2)c(C#N)s1 [Example 21, (R)-2-{[6-ethyl-2-(3-((2-(3-hydroxyazetidin-1-yl)-2-oxoethyl)(methyl)amino)pyrrolidin-1-yl)imidazo[2,1-b][1,3,4]thiadiazol-5-yl](methyl)amino}-4-(4-fluorophenyl)thiazole-5-carbonitrile]
6.30 to 7.00 | 7.00 to 11.00 | CCc1nc2sc(N3CC[C@H](N(C)C(=O)N4CC(O)C4)C3)nn2c1N(C)c1nc(-c2ccc(F)cc2)c(C#N)s1 [Example 37, (S)—N-{1-[5-((5-cyano-4-(4-fluorophenyl)thiazol-2-yl)(methyl)amino)-6-ethylimidazo[2,1-b][1,3,4]thiadiazol-2-yl]pyrrolidin-3-yl}-3-hydroxy-N-methylazetidine-1-carboxamide]
7.00 to 11.00 | 7.00 to 11.00 | CCc1nc2sc(N3CCCC(N(C)CC(=O)N4CC(O)C4)C3)nn2c1N(C)c1nc(-c2ccc(F)cc2)c(C#N)s1 (stereo not drawn) [Example 14]
7.00 to 11.00 | 7.00 to 11.00 | CCc1nc2sc(N3CCC(N(C)CC(=O)N4CC(O)C4)C3)nn2c1N(C)c1nc(-c2ccc(F)cc2)c(C#N)s1 (stereo not drawn) [Example 11]
7.00 to 11.00 | – | CCc1nc2sc(N3C[C@@H]4C[C@H]3CN4CC(=O)N3CC(O)C3)nn2c1N(C)c1nc(-c2ccc(F)cc2)c(C#N)s1 [Example 58, 2-{[6-ethyl-2-((1S,4S)-5-(2-(3-hydroxyazetidin-1-yl)-2-oxoethyl)-2,5-diazabicyclo[2.2.1]heptan-2-yl)imidazo[2,1-b][1,3,4]thiadiazol-5-yl](methyl)amino}-4-(4-fluorophenyl)thiazole-5-carbonitrile]
7.00 to 11.00 | – | CCc1nc2sc(N3CCN(CC(=O)N4CC(O)C4)C(C)C3C)nn2c1N(C)c1nc(-c2ccc(F)cc2)c(C#N)s1 (stereo not drawn) [Example 77, 2-{[6-ethyl-2-(4-(2-(3-hydroxyazetidin-1-yl)-2-oxoethyl)-2,3-dimethylpiperazin-1-yl)imidazo[2,1-b][1,3,4]thiadiazol-5-yl](methyl)amino}-4-(4-fluorophenyl)thiazole-5-carbonitrile]
6.30 to 7.00 | – | CCc1nc2sc(N3CCN(CC(=O)N4CC(O)C4)[C@H](C)C3)nn2c1N(C)c1nc(-c2ccc(F)cc2)c(C#N)s1 [Example 69, (R)-2-{[6-ethyl-2-(4-(2-(3-hydroxyazetidin-1-yl)-2-oxoethyl)-3-methylpiperazin-1-yl)imidazo[2,1-b][1,3,4]thiadiazol-5-yl](methyl)amino}-4-(4-fluorophenyl)thiazole-5-carbonitrile]
7.00 to 11.00 | – | CCc1nc2sc(N3CCN(CC(=O)N4CC(O)C4)C(C)(C)C3)nn2c1N(C)c1nc(-c2ccc(F)cc2)c(C#N)s1 [Example 65, 2-{[6-ethyl-2-(4-(2-(3-hydroxyazetidin-1-yl)-2-oxoethyl)-3,3-dimethylpiperazin-1-yl)imidazo[2,1-b][1,3,4]thiadiazol-5-yl](methyl)amino}-4-(4-fluorophenyl)thiazole-5-carbonitrile]

More lines, now with the values behind:

Structure (SMILES) | pIC50 (ATX in human plasma) | pIC50 (ATX)
CCc1nc2sc(N3CCC4(CC3)CN(C(N)=O)C4)nn2c1N(C)c1nc(-c2ccc(F)cc2)c(C#N)s1 [Example 8] | 6.30 to 7.00 | 6.30 to 7.00
CCc1nc2sc(N3CC[C@H](N(C)CC(=O)N4CC(C#N)C4)C3)nn2c1N(C)c1nc(-c2ccc(F)cc2)c(C#N)s1 [Example 47, (S)-2-{[2-(3-((2-(3-cyanoazetidin-1-yl)-2-oxoethyl)(methyl)amino)pyrrolidin-1-yl)-6-ethylimidazo[2,1-b][1,3,4]thiadiazol-5-yl](methyl)amino}-4-(4-fluorophenyl)-thiazole-5-carbonitrile] | 7.00 to 11.00 | 7.00 to 11.00
CCc1nc2sc(N3CC[C@H](N(C)CC(=O)N4CCOCC4)C3)nn2c1N(C)c1nc(-c2ccc(F)cc2)c(C#N)s1 [Example 41, (S)-2-{[6-ethyl-2-(3-(methyl(2-morpholino-2-oxoethyl)amino)pyrrolidin-1-yl)imidazo[2,1-b][1,3,4]thiadiazol-5-yl](methyl)amino}-4-(4-fluorophenyl)thiazole-5-carbonitrile] | 6.30 to 7.00 | 7.00 to 11.00
CCc1nc2sc(N3CCC4(CC3)CN(CC(=O)N3CC(O)C3)C4)nn2c1N(C)c1nc(-c2ccc(F)cc2)c(C#N)s1 [Example 4] | 7.00 to 11.00 | 6.30 to 7.00
CCc1nc2sc(N3CC[C@H](N(C)CC(=O)N4CC(C(=O)O)C4)C3)nn2c1N(C)c1nc(-c2ccc(F)cc2)c(C#N)s1 [Example 45, (5)-1-{2-[(1-(5-((5-cyano-4-(4-fluorophenyl)thiazol-2-yl)(methyl)amino)-6-ethylimidazo[2,1-b][1,3,4]thiadiazol-2-yl}pyrrolidin-3-yl)(methyl)amino]acetyl}azetidine-3-carboxylic acid] | 6.30 to 7.00 | 7.00 to 11.00
CCc1nc2sc(N3CCCC(N(C)C(N)=O)C3)nn2c1N(C)c1nc(-c2ccc(F)cc2)c(C#N)s1 (stereo not drawn) [Example 15, 1-{1-[5-((5-cyano-4-(4-fluorophenyl)thiazol-2-yl)(methyl)amino)-6-ethylimidazo[2,1-b][1,3,4]thiadiazol-2-yl]piperidin-3-yl}-1-methylurea] | 7.00 to 11.00 | 7.00 to 11.00
CCc1nc2sc(N3CC[C@H](N(C)C(N)=O)C3)nn2c1N(C)c1nc(-c2ccc(F)cc2)c(C#N)s1 [Example 20, (S)-1-{1-[5-((5-cyano-4-(4-fluorophenyl)thiazol-2-yl)(methyl)amino)-6-ethylimidazo[2,1-b][1,3,4]thiadiazol-2-yl]pyrrolidin-3-yl}-1-methylurea] | 7.00 to 11.00 | 7.00 to 11.00
CCc1nc2sc(N3CCC(N(C)C(N)=O)C3)nn2c1N(C)c1nc(-c2ccc(F)cc2)c(C#N)s1 (stereo not drawn) [Example 12, 1-{1-[5-((5-cyano-4-(4-fluorophenyl)thiazol-2-yl)(methyl)amino)-6-ethylimidazo[2,1-b][1,3,4]thiadiazol-2-yl]pyrrolidin-3-yl}-1-methylurea] | 7.00 to 11.00 | 7.00 to 11.00
CCc1nc2sc(N3CCC(N(C)S(C)(=O)=O)C3)nn2c1N(C)c1nc(-c2ccc(F)cc2)c(C#N)s1 (stereo not drawn) [Example 10, N-{1-[5-((5-cyano-4-(4-fluorophenyl)thiazol-2-yl)(methyl)amino)-6-ethylimidazo[2,1-b][1,3,4]thiadiazol-2-yl}pyrrolidin-3-yl]-N-methylmethanesulfonamide] | 7.00 to 11.00 | 7.00 to 11.00
CCc1nc2sc(N3CCC(N(C)CC(=O)NCC(=O)OC)C3)nn2c1N(C)c1nc(-c2ccc(F)cc2)c(C#N)s1 (stereo not drawn) [Example 50] | 6.30 to 7.00 | –
CCc1nc2sc(N3CC4(CCN(CC(=O)N5CC(C#N)C5)C4)C3)nn2c1N(C)c1nc(-c2ccc(F)cc2)c(C#N)s1 [Example 53, 2-{[6-ethyl-2-(6-(2-(3-cyanoazetidin-1-yl)-2-oxoethyl)-2,6-diazaspiro[3.4]octane-2-yl)imidazo[2,1-b][1,3,4]thiadiazol-5-yl](methyl)amino}-4-(4-fluorophenyl)thiazole-5-carbonitrile] | 7.00 to 11.00 | –
